Read-outs that look alike come from different tables or passages of the source.
Test system: NL-RLuc virus
Test: Inhibition of HIV replication: NL-RLuc reporter virus in MT-2 cells, luciferase readout
Type: cell-based
Details: MT-2 cells infected with NL-RLuc virus, 5 days of incubation, 10% FBS, at least 2 experiments
Text: Inhibition of HIV Replication:
A recombinant NL-RLuc proviral clone was constructed in which a section of the nef gene from NL4-3 was replaced with the Renilla Luciferase gene. This virus is fully infectious and can undergo multiple cycles of replication in cell culture. In addition, the luciferous reporter provides a simple and easy method for quantitating the extent of virus growth and consequently, the antiviral activity of test compounds. The plasmid pNLRLuc contains the proviral NL-Rluc DNA cloned into pUC 18 at the PvuII site. The NL-RLuc virus was prepared by transfection of 293T cells with the plasmid pNLRLuc. Transfections were performed using the LipofectAMINE PLUS kit from Invitrogen (Carlsbad, Calif.) according to the manufacturer and the virus generated was titered in MT-2 cells. For susceptibility analyses, the titrated virus was used to infect MT-2 cells in the presence of compound, and after 5 days of incubation, cells were processed and quantitated for virus growth by the amount of expressed luciferase. Assay media was RPMI 1640 supplemented with 10% heat inactivated fetal bovine serum (FBS), 100 units/ml penicillin G/100 units/ml streptomycin, 10 mM HEPES buffer pH 7.55 and 2 mM L-glutamine. The results from at least 2 experiments were used to calculate the EC50 values. Luciferase was quantitated using the Dual Luciferase kit from Promega (Madison, Wis.). Susceptibility of viruses to compounds was determined by incubation in the presence of serial dilutions of the compound. The 50% effective concentration (EC50) was calculated by using the exponential form of the median effect equation where (Fa)=1/[1+(ED50/drug conc.)^m](Johnson V A, Byington R T. Infectivity Assay. In Techniques in HIV Research. ed. Aldovini A, Walker B D. 71-76. New York: Stockton Press. 1990).

[1] = Human immunodeficiency virus 1, MT2, 120 h

Row | SMILES | EC50 [1] | other results
1 | Cc1cc2nc3cn2c(c1[C@H](OC(C)(C)C)C(=O)O)N1CCC(C)(CC1)OCC=CC[C@H](C)Oc1cc(F)cc(F)c1-c1cccc-3c1 [Example 14, (2S)-2-(tert-Butoxy)-2-[(22S)-16,18-difluoro-4,22,28-trimethyl-21,27-dioxa-1,7,34-triazahexacyclo[26.2.2.1^6,^9.1^10,^14.0^2,^7.0^15,^20]tetratriaconta-2,4,6(34),8,10(33),11,13,15(20),16,18,24-undecaen-3-yl]acetic acid] |  | EC50 (read-out: EC50): 0.002 µM
2 | Cc1c([C@H](OC(C)(C)C)C(=O)O)c2n3cc(nc3c1C(F)F)-c1cccc(c1)-c1cc(F)ccc1O[C@@H](C)CCCCOC1(C)CCN2CC1 [Example 63, (2S)-2-(tert-Butoxy)-2-[(22S)-5-(difluoromethyl)-17-fluoro-4,22,28-trimethyl-21,27-dioxa-1,7,34-triazahexacyclo[26.2.2.1^6,^9.1^10,^14.0^2,^7.0^15,^20]tetratriaconta-2,4,6(34),8,10(33),11,13,15(20),16,18-decaen-3-yl]acetic acid] | 0.018 µM | 
3 | CCc1c(C)c([C@H](OC(C)(C)C)C(=O)O)c2n3cc(nc13)-c1cccc(c1)-c1cc(F)c(F)cc1O[C@@H](C)CCCCOC1(C)CCN2CC1 [Example 57, (2S)-2-(tert-Butoxy)-2-[(22S)-5-ethyl-17,18-difluoro-4,22,28-trimethyl-21,27-dioxa-1,7,34-triazahexacyclo[26.2.2.1^6,^9.1^10,^14.0^2,^7.0^15,^20]tetratriaconta-2,4,6(34),8,10(33),11,13,15(20),16,18-decaen-3-yl]acetic acid] | 0.013 µM | 
4 | Cc1c([C@H](OC(C)(C)C)C(=O)O)c2n3cc(nc3c1C)-c1cccc(c1)-c1cccc(F)c1O[C@@H](C)CCCCOC1(C)CCN2CC1 [Example 37, (2S)-2-(tert-Butoxy)-2-[(22S)-19-fluoro-4,5,22,28-tetramethyl-21,27-dioxa-1,7,34-triazahexacyclo[26.2.2.1^6,^9.1^10,^14.0^2,^7.0^15,^20]tetratriaconta-2,4,6(34),8,10(33),11,13,15(20),16,18-decaen-3-yl]acetic acid] | 0.01 µM | 
5 | Cc1cc2nc3cn2c(c1[C@H](OC(C)(C)C)C(=O)O)N1CCC(C)(CC1)OC/C=C/C[C@H](C)Oc1cc(F)ccc1-c1cccc-3c1 [Example 6, (2S)-2-(tert-Butoxy)-2-[(22S)-18-fluoro-4,22,28-trimethyl-21,27-dioxa-1,7,34-triazahexacyclo[26.2.2.1^6,^9.1^10,^14.0^2,^7.0^15,^20]tetratriaconta-2,4,6(34),8,10(33),11,13,15(20),16,18,24-undecaen-3-yl]acetic acid] | 0.005 µM | 
6 | Cc1cc2c(cc1C)-c1cccc(c1)-c1nc3cc(C)c([C@H](OC(C)(C)C)C(=O)O)c(n3c1Cl)N1CCC(C)(CC1)OCCCC[C@H](C)O2 [Example 25, (2S)-2-(tert-Butoxy)-2-[(22S)-8-chloro-4,17,18,22,28-pentamethyl-21,27-dioxa-1,7,34-triazahexacyclo[26.2.2.1^6,^9.1^10,^14.0^2,^7.0^15,^20]tetratriaconta-2,4,6(34),8,10(33),11,13,15(20),16,18-decaen-3-yl]acetic acid] | 0.03 µM | 
7 | Cc1c([C@H](OC(C)(C)C)C(=O)O)c2n3cc(nc3c1C(C)(C)O)-c1cccc(c1)-c1cc(F)ccc1O[C@@H](C)CCCCOC1(C)CCN2CC1 [Example 65, (2S)-2-(tert-Butoxy)-2-[(22S)-17-fluoro-5-(2-hydroxypropan-2-yl)-4,22,28-trimethyl-21,27-dioxa-1,7,34-triazahexacyclo[26.2.2.1^6,^9.1^10,^14.0^2,^7.0^15,^20]tetratriaconta-2,4,6(34),8,10(33),11,13,15(20),16,18-decaen-3-yl]acetic acid] | 0.006 µM | 
8 | Cc1c([C@H](OC(C)(C)C)C(=O)O)c2n3cc(nc3c1CO)-c1cccc(c1)-c1cc(F)ccc1O[C@@H](C)CCCCOC1(C)CCN2CC1 [Example 53, (2S)-2-(tert-Butoxy)-2-[(22S)-17-fluoro-5-(hydroxymethyl)-4,22,28-trimethyl-21,27-dioxa-1,7,34-triazahexacyclo[26.2.2.1^6,^9.1^10,^14.0^2,^7.0^15,^20]tetratriaconta-2,4,6(34),8,10(33),11,13,15(20),16,18-decaen-3-yl]acetic acid] | 0.008 µM | 
9 | Cc1c([C@H](OC(C)(C)C)C(=O)O)c2n3cc(nc3c1C)-c1cccc(c1)-c1c(F)cc(F)cc1O[C@@H](C)CCCCOC1(C)CCN2CC1 [Example 43, (2S)-2-(tert-Butoxy)-2-[(22S)-16,18-difluoro-4,5,22,28-tetramethyl-21,27-dioxa-1,7,34-triazahexacyclo[26.2.2.1^6,^9.1^10,^14.0^2,^7.0^15,^20]tetratriaconta-2,4,6(34),8,10(33),11,13,15(20),16,18-decaen-3-yl]acetic acid] |  | EC50: 0.011 µM
10 | Cc1c([C@H](OC(C)(C)C)C(=O)O)c2n3cc(nc3c1Cl)-c1cccc(c1)-c1cc(F)ccc1O[C@@H](C)CCCCOC1(C)CCN2CC1 [Example 61, (2S)-2-(tert-Butoxy)-2-[(22S)-5-chloro-17-fluoro-4,22,28-trimethyl-21,27-dioxa-1,7,34-triazahexacyclo[26.2.2.1^6,^9.1^10,^14.0^2,^7.0^15,^20]tetratriaconta-2,4,6(34),8,10(33),11,13,15(20),16,18-decaen-3-yl]acetic acid] | 0.015 µM | 
11 | Cc1c([C@H](OC(C)(C)C)C(=O)O)c2n3cc(nc3c1Br)-c1cccc(c1)-c1cccc(F)c1O[C@@H](C)CCCCOC1(C)CCN2CC1 [Example 36, (2S)-2-[(22S)-5-Bromo-19-fluoro-4,22,28-trimethyl-21,27-dioxa-1,7,34-triazahexacyclo[26.2.2.1^6,^9.1^10,^14.0^2,^7.0^15,^20]tetratriaconta-2,4,6(34),8,10(33),11,13,15(20),16,18-decaen-3-yl]-2-(tert-butoxy)acetic acid] | 0.01 µM | 
12 | Cc1c([C@H](OC(C)(C)C)C(=O)O)c2n3cc(nc3c1C)-c1cccc(c1)-c1c(ccc(F)c1F)O[C@@H](C)CCCCOC1(C)CCN2CC1 [Example 47, (2S)-2-(tert-Butoxy)-2-[(22S)-16,17-difluoro-4,5,22,28-tetramethyl-21,27-dioxa-1,7,34-triazahexacyclo[26.2.2.1^6,^9.1^10,^14.0^2,^7.0^15,^20]tetratriaconta-2,4,6(34),8,10(33),11,13,15(20),16,18-decaen-3-yl]acetic acid] | 0.007 µM | 
13 | Cc1c([C@H](OC(C)(C)C)C(=O)O)c2n3cc(nc3c1C)-c1cccc(c1)-c1cc(F)cc(F)c1O[C@@H](C)CCCCOC1(C)CCN2CC1 [Example 45, (2S)-2-(tert-Butoxy)-2-[(22S)-17,19-difluoro-4,5,22,28-tetramethyl-21,27-dioxa-1,7,34-triazahexacyclo[26.2.2.1^6,^9.1^10,^14.0^2,^7.0^15,^20]tetratriaconta-2,4,6(34),8,10(33),11,13,15(20),16,18-decaen-3-yl]acetic acid] | 0.047 µM | 
14 | Cc1c([C@H](OC(C)(C)C)C(=O)O)c2n3cc(nc3c1CO)-c1cccc(c1)-c1c(ccc(F)c1F)O[C@@H](C)CCCCOC1(C)CCN2CC1 [Example 54, (2S)-2-(tert-Butoxy)-2-[(22S)-16,17-difluoro-5-(hydroxymethyl)-4,22,28-trimethyl-21,27-dioxa-1,7,34-triazahexacyclo[26.2.2.1^6,^9.1^10,^14.0^2,^7.0^15,^20]tetratriaconta-2,4,6(34),8,10(33),11,13,15(20),16,18-decaen-3-yl]acetic acid] | 0.004 µM | 

Reference: patent publication US9409922B2, “Imidazopyridine macrocycles as inhibitors of human immunodeficiency virus replication” (priority 2014, dated 2016)
